Results from PMC3894558, “Chemical signatures and new drug targets for gametocytocidal drug development” (Scientific Reports, 2014).
Counter-ions that a name gives are not always drawn. Like-named read-outs stand apart in the source and are kept apart here.

What was measured:
[1] = test system: P. falciparum asexual parasites; set-up: method as in earlier work; settings: SI Table 3, previous screens, cited from earlier work; for IC50: read-out: Activity against asexual parasites IC50
[2] = test system: P. falciparum 3D7 gametocytes; experiment: alamarBlue gametocyte viability assay, strain 3D7; format: cell-based, Plasmodium falciparum
[3] = test system: P. falciparum HB3 gametocytes; experiment: alamarBlue gametocyte viability assay, strain HB3; format: cell-based, Plasmodium falciparum; settings: Plasmodium falciparum
Method: (§1) Briefly, gametocyte cultures were set up at 0.1% parasitemia and on days 9–10 treated with 50 mM N-acetylglucosamine (NAG) to block further asexual growth. Stage III–V gametocytes were isolated by Percoll density gradient centrifugation on day 12 and returned to culture for 24 hrs before being used in the assay[9].
(§2) Briefly, 2.5 μl/well incomplete medium was dispensed into each well of 1,536-well plates using the Multidrop Combi followed by 23 nl compound transferring using the NX-TR Pintool (WAKO Scientific Solutions, San Diego, CA). Then, 2.5 μl/well of gametocytes was dispensed with a seeding density of 20,000 cells/well using the Multidrop Combi. The assay plates were incubated for 72 hrs at 37°C with 5% CO2.

[4] = test system: P. falciparum Dd2 gametocytes; experiment: alamarBlue gametocyte viability assay, strain Dd2; format: cell-based, Plasmodium falciparum; settings: Plasmodium falciparum
Method: as §1, §2

HepG2 cells [5] = settings: for IC50 in HepG2 cells: 11 concentrations, 1:3 dilution, Inactive = no significant activity at 46 µM
From the text: (§3) Growth medium was made with Dulbecco's Modified Eagle Medium with 10% fetal bovine serum (FBS).

HepG2 cells [6] = experiment: cells; settings: Homo sapiens; for Emax: HepG2, read-out: % Max response; for IC50: HepG2, read-out: IC50 in HepG2 cells
From the text: as §3

[7] = Plasmodium falciparum, 3D7, SI Table 3, structure clusters, read-out: Activity against gametocytes Efficacy (% response)
[8] = Plasmodium falciparum, 3D7, SI Table 3, structure clusters, read-out: Activity against gametocytes IC50
[9] = SI Table 3, structure clusters, read-out: Activity against gametocytes IC50
[10] = Plasmodium falciparum, 3D7, strain profiling, 11 concentrations, 1:3 dilution, three times, read-out: 3D7-gametocytes IC50
[11] = HB3, strain profiling, 11 concentrations, 1:3 dilution, three times, read-out: HB3-gametocytes IC50
[12] = DD2, strain profiling, 11 concentrations, 1:3 dilution, three times, read-out: Dd2-gametocytes IC50
[13] = Plasmodium falciparum, 3D7, P. falciparum 3D7 gametocytes, mean of at least 3 independent experiments, read-out: Gametocyte IC50

| IC50 [2, 8] [µM] | SMILES | Activity against asexual parasites Efficacy (% response) [1] | Emax [2, 7] [%] | Activity against asexual parasites IC50 [1] | further results |
| --- | --- | --- | --- | --- | --- |
|  | CN(C)CCC=C1c2ccccc2CCc2ccccc21 [Amitriptyline hydrochloride] | -82.37 % response |  |  | IC50 [1]: 11.2 µM |
| 17.8 | C=CCN1C[C@H](C(=O)N(CCCN(C)C)C(=O)NCC)C[C@@H]2c3cccc4[nH]cc(c34)C[C@H]21 [Cabergoline, reference compound] | -63.65 % response | 80.1 |  | IC50 [1]: 17.8 µM |
|  | CN(C)CCCN1c2ccccc2CCc2ccc(Cl)cc21 [Clomipramine hydrochloride] | inactive |  | inactive |  |
|  | CN(C)CCCN1c2ccccc2CCc2ccc(Cl)cc21 [Clomipramine] | inactive |  | inactive |  |
| 5.62 | CN(C)CCC=C1c2ccccc2C=Cc2ccccc21 [Cyclobenzaprine hydrochloride, reference compound] | inactive | 94.8 | inactive | IC50 [2, 9]: 10 µM |
|  | CN1CCC(=C2c3ccccc3C=Cc3ccccc32)CC1 [Cyproheptadine hydrochloride] | inactive |  | inactive | Activity against gametocytes Efficacy (% response) ([2]; SI Table 3, structure clusters): -80.99 % response |
|  | CN1CCC(=C2c3ccccc3C=Cc3ccccc32)CC1 [Cyproheptadine] | inactive |  | inactive | Activity against gametocytes Efficacy (% response) ([2]; SI Table 3, structure clusters): -122.81 % response |
|  | CNCCCN1c2ccccc2CCc2ccccc21 [Desipramine hydrochloride] | inactive | 101 | inactive |  |
|  | CN(C)CCCN1c2ccccc2C(C)(C)c2ccccc21 [Dimetacrine, reference compound] | inactive |  | inactive | Emax ([2]; Plasmodium falciparum, 3D7, read-out: Activity against gametocytes Efficacy (% response), SI Table 3, structure clusters): 77%; IC50 ([2]; Plasmodium falciparum, 3D7, read-out: Activity against gametocytes IC50, SI Table 3, structure clusters): 22.4 µM |
|  | CN(C)CCCN1c2ccccc2CCc2ccccc21 [Imipramine hydrochloride] | inactive |  | inactive |  |
| 19.9 | CN(CCCN1c2ccccc2CCc2ccccc21)CC(=O)c1ccc(Cl)cc1 [Lofepramine hydrochloride, reference compound] | -103.99 % response | 103 |  | IC50 [1]: 10 µM |
|  | CCCCN(CCCC)CC(O)c1cc(Cl)cc2c1-c1ccc(Cl)cc1/C2=C/c1ccc(Cl)cc1 (stereo not drawn) [Lumefantrine] | -93.57 % response | 76.5 |  | IC50 [2, 10]: 0.059 µM; IC50 [3, 11]: 0.033 µM; IC50 [4, 12]: 0.013 µM; IC50 [1]: 0.02 µM |
|  | CN(C)CCC=C1c2ccccc2C(C)(C)c2ccccc21.Cl [Melitracen hydrochloride, reference compound] | inactive |  | inactive | Activity against gametocytes Efficacy (% response) ([2]; SI Table 3, structure clusters): -103.56 % response; IC50 [2, 9]: 35.5 µM |
| 35.5 | CN1C[C@@H](NS(=O)(=O)N(C)C)C[C@@H]2c3cccc4c3c(cn4C)C[C@H]21 [Mesulergine, reference compound] | inactive | 64 | inactive |  |
| 12.6 | CN1C[C@H](CNC(=O)OCc2ccccc2)C[C@@H]2c3cccc4c3c(cn4C)C[C@H]21 [Metergoline, reference compound] | -71.24 % response |  |  | IC50 [2, 9]: 22.4 µM; IC50 [1]: 12.6 µM |
|  | COc1ccc(C2NC(=S)N3C(c4ccc(OC)c(OC)c4)NC(=S)N23)cc1OC (stereo not drawn) [NSC174938] |  |  |  | IC50 in HepG2 cells (HepG2 cells [5]): Inactive |
| 22.4 | CO[C@]12C[C@@H](COC(=O)c3cncc(Br)c3)CN(C)[C@@H]1Cc1cn(C)c3cccc2c13 [Nicergoline, reference compound] | inactive | 39.4 | inactive |  |
|  | COC(=O)C[C@](O)(CCCC(C)(C)O)C(=O)O[C@@H]1C(OC)=C[C@]23CCCN2CCc2cc4c(cc2[C@H]13)OCO4 [Omacetaxine] |  |  |  | IC50 ([2]; P. falciparum 3D7 gametocytes, mean of at least 3 independent experiments, read-out: Gametocyte IC50): 0.083 µM; IC50 in HepG2 cells (HepG2 cells [5]): Curve not complete; % Max response (HepG2 cells [5]; HepG2 cells): -27% |
|  | NC(=O)N1c2ccccc2CC(=O)c2ccccc21 [Oxcarbazepine, reference compound] | inactive |  | inactive | Activity against gametocytes Efficacy (% response) ([2]; SI Table 3, structure clusters): inactive; Activity against gametocytes IC50 ([2]; SI Table 3, structure clusters): inactive |
| 22.4 | CCCN1C[C@H](CSC)C[C@@H]2c3cccc4[nH]cc(c34)C[C@H]21 [Pergolide methanesulfonate, reference compound] | inactive | 83.5 | inactive | Activity against gametocytes IC50 ([2]; SI Table 3, structure clusters): inactive |
|  | CNCCCC1c2ccccc2C=Cc2ccccc21 [Protriptyline hydrochloride] | inactive | 81.7 | inactive |  |
|  | CC[C@@H](C(=O)[C@@H](C)[C@@H](O)[C@H](C)[C@@H]1O[C@@H]([C@@H](CC)C(=O)O)CC[C@@H]1C)[C@H]1O[C@]2(C=C[C@@H](O)[C@]3(CC[C@@](C)([C@H]4CC[C@](O)(CC)[C@H](C)O4)O3)O2)[C@H](C)C[C@@H]1C [Salinomycin sodium] |  |  |  | IC50 [2, 10]: 0.118 µM; IC50 ([2]; Plasmodium falciparum, P. falciparum 3D7 gametocytes, mean of at least 3 independent experiments, read-out: Gametocyte IC50): 0.194 µM; IC50 ([3]; HB3, read-out: HB3-gametocytes IC50): 0.372 µM; IC50 ([4]; DD2, read-out: Dd2-gametocytes IC50): 0.296 µM; Emax (HepG2 cells [6]): -69%; IC50 (HepG2 cells [6]): 29.6 µM |
| 28.2 | CCN(CC)C(=O)N[C@H]1C[C@@H]2c3cccc4[nH]cc(c34)C[C@H]2N(C)C1 [Terguride, reference compound] | inactive | 80.7 | inactive |  |
| 22.4 | CC(CN(C)C)CN1c2ccccc2CCc2ccccc21 (stereo not drawn) [Trimipramine maleate, reference compound] |  | 47 | inactive | Activity against gametocytes IC50 ([2]; SI Table 3, structure clusters): inactive; IC50 [1]: 30.7 µM |
|  | CC1=C(CO)C(=O)O[C@@H]([C@@H](C)[C@H]2CC[C@H]3[C@@H]4C[C@H]5O[C@]56[C@@H](O)C=CC(=O)[C@]6(C)[C@H]4CC[C@]23C)C1 [Withaferin A] |  |  |  | IC50 [2, 13]: 0.372 µM; IC50 [3, 11]: 1.33 µM; IC50 [4, 12]: 0.372 µM; Emax (HepG2 cells [6]): -80%; IC50 (HepG2 cells [6]): 9.35 µM |
|  | COCCn1c2c([n+](Cc3cnccn3)c1C)C(=O)c1ccccc1C2=O [YM155] |  |  |  | IC50 [2, 13]: 0.372 µM; IC50 [3, 11]: 0.304 µM; IC50 [4, 12]: 0.526 µM; Emax (HepG2 cells [6]): -92%; IC50 (HepG2 cells [6]): 4.69 µM |

| SMILES | IC50 [2, 8] [µM] | Activity against asexual parasites Efficacy (% response) [1] | Emax [2, 7] [%] | Activity against asexual parasites IC50 [1] | further results |
| --- | --- | --- | --- | --- | --- |
| CNCCC=C1c2ccccc2CCc2ccccc21 [Nortriptyline hydrochloride, reference compound] | 22.4 | inactive | 111 | inactive | IC50 [2, 9]: 35.5 µM |
